Data reported in US6521594B1, “Method and composition for treating thrombosis” (La Jolla Cancer Research Foundation, priority 1990, dated 2003).
pIC50: −log10 of the molar value. Where two headings read alike, the source gives them in different places. Non-standard residues stand in square brackets, D forms with d. No end group written: not given here. *: point of attachment. Pmc = Cc1c(C)c(S(=O)(=O)*)c(C)c2c1OC(C)(C)CC2; Pen = CC(C)(S)[C@H](N)C(=O)O

Assays:
[1] = test system: αvβ5; assay: αvβ5 ELISA IC50 (μM)
From the text: Table printed on a drawing sheet, FIG. 19
(§1) Title: Modifications of R(Pmc)GHRGD(Y-OMe)RCR
(§2) Head of the field: αvβ5 ELISA IC50 (μM)
First copying reader's note: The part of each sequence from (Pmc) through C is underlined on the sheet, and the footnotes a,b cited in the head are not printed on it.
(§3) Where the first naming reader finds the target: head: αvβ5 ELISA IC50 (μM)

[2] = test system: αvβ5; assay: αvβ5 ELISA IC50 (μM); remark: listed apart in the source
From the text: Table printed on a drawing sheet, FIG. 23
Title: Modification of Ac-CNPRGD(Y-OMe)RC-NH2
as §2
First copying reader's note: Underlining in the printed sequences marks the cyclised part (C to C); the footnote for the raised a on 'Peptide' is not printed on the sheet.
as §3

[3] = test system: αvβ5; assay: αvβ5 ELISA IC50 (μM); remark: listed apart in the source
From the text: Table printed on a drawing sheet, FIG. 22
Title: Modifications of Ac-CNPRGD(Y-OMe)RC-NH2
as §2
First copying reader's note: Underlining in the printed sequences marks the cyclic part; the footnote for the raised a at 'Peptide' is not printed on the sheet, and the D in D-Pen is printed as a small capital.
as §3

[4] = test system: platelets; assay: Ex vivo inhibition of platelet aggregation (Table IV); assay type: in vivo, dog; conditions: dose as listed per peptide (bolus ± infusion)
Protocol: (§4) Platelet aggregation assays were performed following the methods of this Example or those of Example IX.G. Platelet aggregation was assessed using the method of Born, (Nature 194:927-929 (1962)), incorporated herein by reference. Briefly, the change in light transmission was measured through a stirred suspension of platelets in an aggregometer (Model 400 VS, Chrono-Log, Havertown, Pa., USA). Studies employing ADP were performed with platelet-rich plasma (PRP), which was obtained by low-speed centrifugation (200×g for 10 min.) of whole blood freshly drawn into trisodium citrate (at a final concentration of 11 mM). In studies using thrombin, the PRP was gel-filtered on Sepharose 2B in divalent ion-free Tyrode's solution containing 2% BSA. For all studies, the reference standard was platelet-poor plasma, which was obtained by centrifuging PRP at 1000×g for 5 min.
Platelet counts and ex vivo aggregation studies were performed one hour before and 1, 3, and 5 hours after application of anodal direct current.
Using the method described in Example V to measure ex vivo inhibition of platelet aggregation and the method described in Example VII to measure bleeding, four additional peptides were tested. These peptides included 11J, 11Q, 11K and 11V.

[5] = molecular target: T1, platelets (Homo sapiens, UniProt P05106+P08514); assay: Platelet aggregation assay (Examples XI.G and XII); assay type: cell-based
Protocol: as §4, with “Platelet” for “Platelet aggregation assays were performed following the methods of this Example or those of Example IX.G. Platelet”, “Nature” for “(Nature”, “(1962),” for “(1962)),”
All aggregation studies were performed at 37° C. with a constantly stirred suspension of 3×10^8 platelets/mL. (Platelet count was determined with the aid of a hemacytometer.) Peptides and stimulants were added to these suspensions in 1% dilutions. The PRP and gel-filtered platelets were used within three hours from the time of blood collection.
The peptides described in this Example were synthesized according to the methods of Examples I and XI. Selectivity and potency were measured according to the methods of Examples II through XI. The peptide identification numbers used in this Example are consistent and relevant to this Example only. Some of the peptides are identified by other nomenclature elsewhere in this document.

[6] = molecular target: T1, platelets; assay type: cell-based; conditions: ADP 10 μm; citrated PRP; read-out: ADP-Stimulated Aggregation (IC50)
Protocol: Briefly, the change in light transmission was measured through a stirred suspension of platelets in an aggregometer (Model 400 VS, Chrono-Log, Havertown, Pa., USA). […] In studies using thrombin, the PRP was gel-filtered on Sepharose 2B in divalent ion-free Tyrode's solution containing 2% BSA. For all studies, the reference standard was platelet-poor plasma, which was obtained by centrifuging PRP at 1000×g for 5 min.
(§5) All aggregation studies were performed at 37° C. with a constantly stirred suspension of 3×10^8 platelets/ml. (Platelet count was determined with the aid of a hemacytometer.) Peptides and stimulants were added to these suspensions in 1% dilutions. The PRP and gel-filtered platelets were used within three hours from the time of blood collection.
(§6) Peptide anti-aggregation potencies were determined from dose-responsive curves for the inhibition of the maximum aggregation responses stimulated by physiologic doses of ADP (10 μm) and thrombin (2 U/ml).

[7] = test system: αvβ5; assay: αvβ5 ELISA IC50 (μM); remark: listed apart in the source
From the text: Table printed on a drawing sheet, FIG. 20
as §1, §2
First copying reader's note: Footnote marks a, b and c are printed but their texts are not on the sheet; the underlined part of each sequence (Pmc to C) marks the cyclic portion, and D in (DH) and (DY) is a small capital for the D-amino acid.
as §3

[8] = molecular target: T1, platelets; assay: Thrombin-stimulated platelet aggregation (gel-filtered platelets); assay type: cell-based; conditions: thrombin 2 U/ml
Protocol: as §5, §6

[9] = test system: αvβ5; assay: αvβ5 ELISA IC50 (μM); remark: listed apart in the source
From the text: Table printed on a drawing sheet, FIG. 17
Title: Modifications of G(Pen)[…]
as §2
The patent's description of the figure: FIG. 17 is a Table showing the effect of modifications of Pen residue at position −3 (as defined, infra) on potency and selectivity.
First copying reader's note: Underlining in the printed sequences marks the cyclized part; the footnotes a and b are referenced but not printed on the sheet.
as §3

T1 sequence (P08514 32-1039): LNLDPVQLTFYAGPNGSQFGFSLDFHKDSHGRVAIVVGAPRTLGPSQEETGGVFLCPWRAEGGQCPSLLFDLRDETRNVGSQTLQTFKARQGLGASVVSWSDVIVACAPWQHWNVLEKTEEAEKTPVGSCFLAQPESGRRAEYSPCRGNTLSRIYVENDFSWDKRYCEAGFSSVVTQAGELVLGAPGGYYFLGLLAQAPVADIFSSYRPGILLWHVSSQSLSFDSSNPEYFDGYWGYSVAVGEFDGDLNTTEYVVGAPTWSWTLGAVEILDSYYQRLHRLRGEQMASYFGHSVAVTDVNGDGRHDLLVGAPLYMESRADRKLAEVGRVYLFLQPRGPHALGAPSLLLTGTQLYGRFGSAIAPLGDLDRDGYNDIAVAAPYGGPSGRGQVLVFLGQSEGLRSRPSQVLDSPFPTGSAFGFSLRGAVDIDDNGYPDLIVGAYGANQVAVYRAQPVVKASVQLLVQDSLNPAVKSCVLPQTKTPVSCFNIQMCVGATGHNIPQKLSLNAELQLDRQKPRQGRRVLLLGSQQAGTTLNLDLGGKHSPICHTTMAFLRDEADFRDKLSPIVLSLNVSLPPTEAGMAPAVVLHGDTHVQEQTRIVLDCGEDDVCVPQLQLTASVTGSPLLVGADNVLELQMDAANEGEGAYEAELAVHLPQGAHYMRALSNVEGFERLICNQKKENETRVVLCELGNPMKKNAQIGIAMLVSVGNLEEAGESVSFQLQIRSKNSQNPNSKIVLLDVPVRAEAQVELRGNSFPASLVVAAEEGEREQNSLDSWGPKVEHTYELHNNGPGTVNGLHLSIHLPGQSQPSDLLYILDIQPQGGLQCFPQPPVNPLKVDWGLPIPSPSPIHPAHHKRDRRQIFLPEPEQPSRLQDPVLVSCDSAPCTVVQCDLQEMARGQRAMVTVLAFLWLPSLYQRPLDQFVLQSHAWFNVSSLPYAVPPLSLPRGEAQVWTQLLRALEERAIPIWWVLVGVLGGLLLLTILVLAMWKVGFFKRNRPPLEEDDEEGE
T1 sequence (P05106 27-788): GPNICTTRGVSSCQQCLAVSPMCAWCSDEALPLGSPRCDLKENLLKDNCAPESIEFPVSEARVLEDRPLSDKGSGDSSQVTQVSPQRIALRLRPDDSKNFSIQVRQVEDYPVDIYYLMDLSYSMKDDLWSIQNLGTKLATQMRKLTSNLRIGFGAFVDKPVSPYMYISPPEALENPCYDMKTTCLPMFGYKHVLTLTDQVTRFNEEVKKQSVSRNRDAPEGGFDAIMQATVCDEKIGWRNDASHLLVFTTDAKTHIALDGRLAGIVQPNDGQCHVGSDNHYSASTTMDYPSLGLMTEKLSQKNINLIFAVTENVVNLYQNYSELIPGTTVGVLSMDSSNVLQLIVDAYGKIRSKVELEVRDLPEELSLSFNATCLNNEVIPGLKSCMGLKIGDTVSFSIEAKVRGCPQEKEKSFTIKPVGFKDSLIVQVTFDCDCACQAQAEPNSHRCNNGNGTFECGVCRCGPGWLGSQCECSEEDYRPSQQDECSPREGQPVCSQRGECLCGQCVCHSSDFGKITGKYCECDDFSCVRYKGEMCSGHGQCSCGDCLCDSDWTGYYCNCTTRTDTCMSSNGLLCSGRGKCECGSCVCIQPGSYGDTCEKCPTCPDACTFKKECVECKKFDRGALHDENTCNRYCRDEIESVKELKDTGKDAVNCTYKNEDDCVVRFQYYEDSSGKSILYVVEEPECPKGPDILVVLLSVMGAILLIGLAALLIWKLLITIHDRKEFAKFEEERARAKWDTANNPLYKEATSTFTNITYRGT

R(Pmc)IHRGD(Y-OMe)RCR [compound 20] was tested. Which pIC50 [1] did it give?
Its pIC50 is 5.00.

Ac-CNPRGD(Y-OMe)(Cit)C-NH2 [11S] was tested. Which pIC50 [2] did it give?
The pIC50 was 5.46.

With “Ac-CNPRGD(Y-OMe)AC-NH2 [11K] [listing 1 of 2 here]” as the substance, how does the pIC50 [2] read?
Its pIC50 is 5.05.

With “Ac-(Pmc)NPRGD(Y-OMe)RC-NH2 [compound 37]” as the substance, how does the pIC50 [3] read?
The pIC50 was 5.63.

With “Ac-CNPRGD(Y-OMe)AC-NH2 [11K] [listing 2 of 2 here]” as the substance, how does the “ex vivo inhibition platelet aggregation” value [4] read?
Its value is >98%.

And the “platelet aggregation potency compared with analogue 32” value ([5]; comparator analogue 32)?
Its value is “substantial decreases”.

How did the “retained inhibitory activity versus analogue 32” value ([5]; comparator analogue 32) turn out when Ac-CNPRGD(Y-OMe)KC-NH2 [11R] was run?
Its value is 20%.

How did the pIC50 [6] turn out when (t-but-am-Pmp)GHRGDLR(Pen)A was run?
Its pIC50 is 4.05.

What does the source list for R(Pmc)GHRGDFRCR?
pIC50 [6]: 6.21; fold increase in platelet aggregation potency on substitution of Leu in analogue 5 ([5]; comparator analogue 5): ~5 fold

For “Ac-CNPRGD(O-N-Butyl-Y)RC-NH2 [analogue 34]”, which “fold increase in potency over analogue 1” value ([5]; comparator analogue 1) is on record?
The value was “about 150 fold”.

Ac-CNPRGD(Y-OMe)EC-NH2 [11J] was tested. Which “ex vivo inhibition platelet aggregation” value [4] did it give?
Its value is >98%.

And the “fold decrease in potency versus analogue 32” value ([5]; comparator analogue 32)?
Its value is 15 fold.

Ac-CNPRGD(Y-OMe)OC-NH2 [11P] was tested. Which pIC50 [2] did it give?
Its pIC50 is 5.11.

AcCIPRGDY-OMeRCNH2 [10R] was tested. Which “fold increase in platelet aggregation potency versus analogue 26” value ([5]; comparator analogue 26) did it give?
Its value is 3-4 fold.

R(Pmc)GYRGD(Y-OMe)RCR [compound 24] was tested. Which pIC50 [7] did it give?
The pIC50 was 5.06.

Which “reactivity in platelet aggregation relative to 8×” value ([5]; comparator 8×) does the source give for RGD(O-Me-Y)RE-NH2 [21I] here?
Its value is “about three-fold”.

Ac-CNPKGD(Y-OMe)RC-NH2 [11Q] was tested. Which “ex vivo inhibition platelet aggregation” value [4] did it give?
Its value is >95%.

Ac-CNPRGD(Y-OMe)(Nle)C-NH2 [11V] was tested. Which “ex vivo inhibition platelet aggregation” value [4] did it give?
The value was >98%.

(Pmp)NPRGD(Y-OMe)RC-NH2 [compound 38] was tested. Which pIC50 [3] did it give?
Its pIC50 is 5.31.

What does the source list for R2(Pen)GRGDTPCA?
pIC50 [8]: 5.57; pIC50 [6]: 5.09

G(Pen)GRGDRPCA was tested. Which pIC50 [6] did it give?
The pIC50 was 4.65.

R(Tmc)GHRGDLRCR [analogue 7] was tested. Which “fold more potent than analogue 3 in the aggregation assay” value ([5]; comparator analogue 3) did it give?
The value was 2 fold.

With G(Pen)GHRGDLRCA [2G] as the substance, how does the pIC50 [9] read?
The pIC50 was 5.08.

G(D-Pen)GHRGDLRCA [compound 2] was tested. Which pIC50 [9] did it give?
Its pIC50 is 5.28.

With G(Pen)LRGDTPCA as the substance, how does the pIC50 [6] read?
Its pIC50 is 4.07.

With “G[Pen]GRGDSFCA (cysteine pairing not given here)” as the substance, how does the pIC50 [6] read?
Its pIC50 is 3.94.

With G(Pen)FRGDSFCA as the substance, how does the pIC50 [6] read?
Its pIC50 is > 3.70.

What does the source list for G(Pen)LRGDSPCA?
pIC50 [8]: 3.51; pIC50 [6]: 3.38
